One assay addresses T1, PARP7 (Homo sapiens, UniProt Q7Z3E1).
T1 sequence (Q7Z3E1 1-657): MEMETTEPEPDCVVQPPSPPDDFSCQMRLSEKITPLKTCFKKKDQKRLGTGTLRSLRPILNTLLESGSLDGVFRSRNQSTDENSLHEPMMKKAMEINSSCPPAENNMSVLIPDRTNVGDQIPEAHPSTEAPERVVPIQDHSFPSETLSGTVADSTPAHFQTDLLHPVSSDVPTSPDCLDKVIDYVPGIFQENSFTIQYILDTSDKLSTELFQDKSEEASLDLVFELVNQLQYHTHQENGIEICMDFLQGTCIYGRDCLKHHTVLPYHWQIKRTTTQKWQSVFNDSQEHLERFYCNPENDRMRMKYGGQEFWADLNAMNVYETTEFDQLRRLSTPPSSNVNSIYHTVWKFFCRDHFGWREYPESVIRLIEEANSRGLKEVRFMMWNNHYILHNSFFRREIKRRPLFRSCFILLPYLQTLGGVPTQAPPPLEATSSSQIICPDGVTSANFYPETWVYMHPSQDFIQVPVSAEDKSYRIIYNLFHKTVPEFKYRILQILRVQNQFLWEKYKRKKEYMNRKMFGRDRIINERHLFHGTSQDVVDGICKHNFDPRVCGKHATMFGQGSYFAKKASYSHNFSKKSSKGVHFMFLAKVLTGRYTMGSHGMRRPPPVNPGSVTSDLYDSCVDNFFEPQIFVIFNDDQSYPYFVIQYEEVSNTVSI
The experiment in a line: Probe Displacement Assay for PARP7 (MSD electrochemiluminescent, biotinylated probe RBNO11147). The following applies: displacement of biotinylated probe RBNO11147 from PARP7 NAD+-binding site; read-out: MSD ProbeDisp PARP7 IC50.

In assay [1] the test system is endogenous cellular STAT1 (phosphorylated at Tyr701) in NCI-H1373 cells. The experiment in a line: Phospho-STAT1 (Tyr701) LANCE Ultra TR-FRET Detection Assay. The format is cell-based. The settings on record: Homo sapiens, NCI-H1373, 48 h, phospho-STAT1 (Tyr701) induction, read-out: NH1373 pSTAT1 EC50.

Results on 19 molecules are retold here after patent US12459922B2 (Gilead Sciences, Inc., priority 2022, dated 2025).

For orientation: IC50 means the point on the concentration scale where inhibition reaches its midpoint. As a reminder, the EC50 is the concentration at which the effect is half-maximal. On to `C[C@@H](CCCn1ccc2cc(-c3cccc4c3OCCO4)c(F)cc2c1=O)Nc1cn[nH]c(=O)c1C(F)(F)F` [Example 27, (S)-6-(2,3-dihydrobenzo[b][1,4]dioxin-5-yl)-7-fluoro-2-(4-((6-oxo-5-(trifluoromethyl)-1,6-dihydropyridazin-4-yl)amino)pentyl)isoquinolin-1(2H)-one], for which the IC50 on PARP7 was found to be 25 nM. Besides, in assay [1], the EC50 turned out to be 10000 nM. In the same order, the values of `C[C@@H](CCCn1ccc2cc(-c3ccc(F)cn3)cc(F)c2c1=O)Nc1cn[nH]c(=O)c1C(F)(F)F` [Example 19, (S)-8-fluoro-6-(5-fluoropyridin-2-yl)-2-(4-((6-oxo-5-(trifluoromethyl)-1,6-dihydropyridazin-4-yl)amino)pentyl)isoquinolin-1(2H)-one] are 0.3 nM and 74.1 nM. For `C[C@@H](CCCn1ccc2cc(-c3cn4ccccc4n3)c(F)cc2c1=O)Nc1cn[nH]c(=O)c1C(F)(F)F` [Example 305, (S)-7-fluoro-6-(imidazo[1,2-a]pyridin-2-yl)-2-(4-((6-oxo-5-(trifluoromethyl)-1,6-dihydropyridazin-4-yl)amino)pentyl)isoquinolin-1(2H)-one] the same measures were 0.387 nM and 57 nM.

For the molecule `CC[C@@H](CCCn1ccc2cc(-c3ncc(C(F)(F)F)cn3)c(F)cc2c1=O)Nc1cn[nH]c(=O)c1C(F)(F)F` [Example 37, 7-fluoro-2-[(4S)-4-[[6-oxo-5-(trifluoromethyl)-1H-pyridazin-4-yl]amino]hexyl]-6-[5-(trifluoromethyl)pyrimidin-2-yl]isoquinolin-1-one], the IC50 at PARP7 is 0.4 nM. The EC50 in assay [1] was 42.7 nM.

Turning to `C[C@@H](CCCn1cnc2cc(-c3ncc(OCCO)cn3)c(F)cc2c1=O)Nc1cn[nH]c(=O)c1C(F)(F)F` [Example 127, (S)-6-fluoro-7-(5-(2-hydroxyethoxy)pyrimidin-2-yl)-3-(4-((6-oxo-5-(trifluoromethyl)-1,6-dihydropyridazin-4-yl)amino)pentyl)quinazolin-4(3H)-one], the EC50 in assay [1] was 474 nM. The same measure, in the same setting: to `O=c1[nH]ncc(N[C@@H](CO)CCCn2ccc3cc(-c4ncc(C(F)F)cn4)c(F)cc3c2=O)c1C(F)(F)F` [Example 165] belongs 159 nM. Same read-out and setting: to `C[C@@H](CCCn1ccc2cc(-c3ncc(OC(F)F)c(N)n3)c(F)cc2c1=O)Nc1cn[nH]c(=O)c1C(F)(F)F` [Example 194, (S)-6-(4-amino-5-(difluoromethoxy)pyrimidin-2-yl)-7-fluoro-2-(4-((6-oxo-5-(trifluoromethyl)-1,6-dihydropyridazin-4-yl)amino)pentyl)isoquinolin-1(2H)-one] belongs 6.6 nM; to `C[C@@H](CCCn1ccc2cc(-c3ncc(C(F)(F)F)c(N4CCS(=O)(=O)C4)n3)c(F)cc2c1=O)Nc1cn[nH]c(=O)c1C(F)(F)F` [Example 317, (S)-6-(4-(1,1-dioxidothiazolidin-3-yl)-5-(trifluoromethyl)pyrimidin-2-yl)-7-fluoro-2-(4-((6-oxo-5-(trifluoromethyl)-1,6-dihydropyridazin-4-yl)amino)pentyl)isoquinolin-1(2H)-one], 45.1 nM; to `O=c1[nH]ncc(N[C@H]2CCC[C@@H](Cn3ccc4cc(-c5ncc(Cl)cn5)c(F)cc4c3=O)C2)c1C(F)(F)F` [Example 248, 6-(5-chloropyrimidin-2-yl)-7-fluoro-2-(((1R,3S)-3-((6-oxo-5-(trifluoromethyl)-1,6-dihydropyridazin-4-yl)amino)cyclohexyl)methyl)isoquinolin-1(2H)-one], 3.44 nM. `C[C@@H](CCCn1cnc2cc(-c3ncc(C#N)c(N)n3)c(F)cc2c1=O)Nc1cn[nH]c(=O)c1C(F)(F)F` [Example 125, (S)-4-amino-2-(6-fluoro-4-oxo-3-(4-((6-oxo-5-(trifluoromethyl)-1,6-dihydropyridazin-4-yl)amino)pentyl)-3,4-dihydroquinazolin-7-yl)pyrimidine-5-carbonitrile]: in assay [1], the EC50 stood at 84.8 nM. Same read-out and setting: to `O=c1[nH]ncc(N2CC[C@H]2CCCn2cnc3cc(-c4ncc(C(F)(F)F)cn4)c(F)cc3c2=O)c1C(F)(F)F` (single isomer, unassigned) [Example 152] belongs 0.508 nM. Same read-out and setting: to `N#CC[C@@H](CCCn1ccc2cc(-c3ncc(C(F)(F)F)cn3)c(F)cc2c1=O)Nc1cn[nH]c(=O)c1C(F)(F)F` [Example 160, (3R)-6-[7-fluoro-1-oxo-6-[5-(trifluoromethyl)pyrimidin-2-yl]-2-isoquinolyl]-3-[[6-oxo-5-(trifluoromethyl)-1H-pyridazin-4-yl]amino]hexanenitrile] belongs 219 nM. Still for that read-out and setting: next, `O=c1[nH]ncc(N[C@H]2CCC[C@@H]2CCn2cnc3cc(-c4ncc(C(F)(F)F)cn4)c(F)cc3c2=O)c1C(F)(F)F` [Example 463, 6-fluoro-3-(2-((1R,2S)-2-((6-oxo-5-(trifluoromethyl)-1,6-dihydropyridazin-4-yl)amino)cyclopentyl)ethyl)-7-(5-(trifluoromethyl)pyrimidin-2-yl)quinazolin-4(3H)-one]: 9.47 nM. For the molecule `[2H]C([2H])([2H])OC[C@@H](CCCn1ccc2cc(-c3ncc(C(F)(F)F)c(N)n3)c(F)cc2c1=O)Nc1cn[nH]c(=O)c1C(F)(F)F` [Example 427, 6-[4-amino-5-(trifluoromethyl)pyrimidin-2-yl]-7-fluoro-2-[(4R)-4-[[6-oxo-5-(trifluoromethyl)-1H-pyridazin-4-yl]amino]-5-(trideuteriomethoxy)pentyl]isoquinolin-1-one], in assay [1], the EC50 was determined as 2.87 nM. Same read-out and setting: to `C[C@@H](CCCn1cnc2cc(-c3nc(N)c4ccccc4n3)c(F)cc2c1=O)Nc1cn[nH]c(=O)c1C(F)(F)F` [Example 354, (S)-4-amino-6'-fluoro-3'-(4-((6-oxo-5-(trifluoromethyl)-1,6-dihydropyridazin-4-yl)amino)pentyl)-[2,7'-biquinazolin]-4'(3'H)-one] belongs 65.1 nM; to `O=c1[nH]ncc(N[C@H]2CCC[C@@H](Cn3ccc4cc(-c5ncc(Cl)cn5)c(F)c(F)c4c3=O)C2)c1C(F)(F)F` [Example 246, 6-(5-chloropyrimidin-2-yl)-7,8-difluoro-2-(((1R,3S)-3-((6-oxo-5-(trifluoromethyl)-1,6-dihydropyridazin-4-yl)amino)cyclohexyl)methyl)isoquinolin-1(2H)-one], 3.78 nM.

`C[C@@H](CCCn1ccc2cc(-c3cnc(C(F)(F)F)c(N)n3)c(F)c(F)c2c1=O)Nc1cn[nH]c(=O)c1C(F)(F)F` [Example 349, (S)-6-(6-amino-5-(trifluoromethyl)pyrazin-2-yl)-7,8-difluoro-2-(4-((6-oxo-5-(trifluoromethyl)-1,6-dihydropyridazin-4-yl)amino)pentyl)isoquinolin-1(2H)-one]: in assay [1], the EC50 was 11.8 nM. Still for that read-out and setting: to `O=c1[nH]ncc(N[C@H](CCCn2cnc3nc(-c4ccc(C(F)(F)F)cn4)ccc3c2=O)COC(F)F)c1C(F)(F)F` [Example 404, (R)-3-(5-(difluoromethoxy)-4-((6-oxo-5-(trifluoromethyl)-1,6-dihydropyridazin-4-yl)amino)pentyl)-7-(5-(trifluoromethyl)pyridin-2-yl)pyrido[2,3-d]pyrimidin-4(3H)-one] belongs 1.57 nM; to `COc1cnc(-c2cc3ccn(CCC[C@H](C)Nc4cn[nH]c(=O)c4C(F)(F)F)c(=O)c3cc2F)nc1N1CCC1` [Example 186, (S)-6-(4-(azetidin-1-yl)-5-methoxypyrimidin-2-yl)-7-fluoro-2-(4-((6-oxo-5-(trifluoromethyl)-1,6-dihydropyridazin-4-yl)amino)pentyl)isoquinolin-1(2H)-one], 66.1 nM.
